Like-named read-outs stand apart in the source and are kept apart here. One block for each molecule: values may come before it.
Assays:
BCRP [1] = target: T1, BCRP (Homo sapiens, UniProt Q9UNQ0)
T1 sequence (Q9UNQ0 1-655): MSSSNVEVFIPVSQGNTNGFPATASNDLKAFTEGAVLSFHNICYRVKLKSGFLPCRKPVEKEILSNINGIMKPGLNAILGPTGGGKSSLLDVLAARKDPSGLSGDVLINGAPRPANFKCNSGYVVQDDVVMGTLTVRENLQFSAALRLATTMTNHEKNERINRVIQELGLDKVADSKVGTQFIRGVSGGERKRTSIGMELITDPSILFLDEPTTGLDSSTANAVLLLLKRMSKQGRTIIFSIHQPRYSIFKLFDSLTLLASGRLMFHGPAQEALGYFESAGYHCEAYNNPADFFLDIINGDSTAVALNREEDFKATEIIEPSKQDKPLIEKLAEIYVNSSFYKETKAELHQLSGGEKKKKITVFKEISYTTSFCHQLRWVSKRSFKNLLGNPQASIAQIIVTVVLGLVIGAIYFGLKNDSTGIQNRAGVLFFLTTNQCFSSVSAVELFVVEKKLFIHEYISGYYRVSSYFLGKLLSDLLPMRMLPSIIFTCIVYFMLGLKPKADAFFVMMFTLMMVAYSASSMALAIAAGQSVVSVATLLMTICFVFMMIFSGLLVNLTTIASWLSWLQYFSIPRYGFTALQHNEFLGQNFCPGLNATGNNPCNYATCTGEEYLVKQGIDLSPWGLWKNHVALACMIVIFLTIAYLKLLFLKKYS
Procedure: (§2) The activity of ABC transporters was assessed by measuring the apical-to-basolateral (AB) and basolateral-to-apical (BA) fluxes of specific substrates. To this aim, cell monolayers were washed twice in HBSS and equilibrated for 30 min in the same solution (pH 7.4, 37 °C). […] Aliquots of the solution in the receiver chamber were collected after 0 min, 30 min, 60 min and 120 min and replaced with fresh HBSS. The fluxes were determined by measuring fluorescence with an EnSpire® Multimode Plate Reader (Perkin Elmer), or radioactivity with MicroBeta^2 liquid scintillation spectrometer. Data obtained were employed to calculate the apparent permeability coefficient (Papp). The integrity of cell monolayers, verified by measuring TEER before and after the experiment, was not modified by the experimental procedures.
(§3) Efflux ratio (ER) was calculated as the ratio between Papp measured for BA and AB fluxes, while uptake ratio (UR) was calculated as the ratio between Papp measured for AB and BA fluxes.

BCRP [2] = target: T1, BCRP; experiment: BCRP activity, bidirectional transport of 3H-mitoxantrone in EpiAirway; details: 21 d at ALI, 10 µM Febuxostat
Procedure: as §2, §3

MDR1 [3] = experiment: MDR1 activity, bidirectional transport of Rhodamine 123 in EpiAirway; type: in vitro ADME, human
MDR1 [4] = target: T2, MDR1 (Homo sapiens, UniProt P08183); experiment: MDR1 activity, bidirectional transport of Rhodamine 123 in Calu-3; type: in vitro ADME; details: 1 µM Rhodamine 123
T2 construct: MDR1 in Calu-3 cultures is expressed and operative on the apical membrane of the cells only after 21 d at ALI; endogenous in cells; host or cells: Calu-3 cells at air-liquid interface, 8 d or 21 d
T2 sequence (P08183 whole entry): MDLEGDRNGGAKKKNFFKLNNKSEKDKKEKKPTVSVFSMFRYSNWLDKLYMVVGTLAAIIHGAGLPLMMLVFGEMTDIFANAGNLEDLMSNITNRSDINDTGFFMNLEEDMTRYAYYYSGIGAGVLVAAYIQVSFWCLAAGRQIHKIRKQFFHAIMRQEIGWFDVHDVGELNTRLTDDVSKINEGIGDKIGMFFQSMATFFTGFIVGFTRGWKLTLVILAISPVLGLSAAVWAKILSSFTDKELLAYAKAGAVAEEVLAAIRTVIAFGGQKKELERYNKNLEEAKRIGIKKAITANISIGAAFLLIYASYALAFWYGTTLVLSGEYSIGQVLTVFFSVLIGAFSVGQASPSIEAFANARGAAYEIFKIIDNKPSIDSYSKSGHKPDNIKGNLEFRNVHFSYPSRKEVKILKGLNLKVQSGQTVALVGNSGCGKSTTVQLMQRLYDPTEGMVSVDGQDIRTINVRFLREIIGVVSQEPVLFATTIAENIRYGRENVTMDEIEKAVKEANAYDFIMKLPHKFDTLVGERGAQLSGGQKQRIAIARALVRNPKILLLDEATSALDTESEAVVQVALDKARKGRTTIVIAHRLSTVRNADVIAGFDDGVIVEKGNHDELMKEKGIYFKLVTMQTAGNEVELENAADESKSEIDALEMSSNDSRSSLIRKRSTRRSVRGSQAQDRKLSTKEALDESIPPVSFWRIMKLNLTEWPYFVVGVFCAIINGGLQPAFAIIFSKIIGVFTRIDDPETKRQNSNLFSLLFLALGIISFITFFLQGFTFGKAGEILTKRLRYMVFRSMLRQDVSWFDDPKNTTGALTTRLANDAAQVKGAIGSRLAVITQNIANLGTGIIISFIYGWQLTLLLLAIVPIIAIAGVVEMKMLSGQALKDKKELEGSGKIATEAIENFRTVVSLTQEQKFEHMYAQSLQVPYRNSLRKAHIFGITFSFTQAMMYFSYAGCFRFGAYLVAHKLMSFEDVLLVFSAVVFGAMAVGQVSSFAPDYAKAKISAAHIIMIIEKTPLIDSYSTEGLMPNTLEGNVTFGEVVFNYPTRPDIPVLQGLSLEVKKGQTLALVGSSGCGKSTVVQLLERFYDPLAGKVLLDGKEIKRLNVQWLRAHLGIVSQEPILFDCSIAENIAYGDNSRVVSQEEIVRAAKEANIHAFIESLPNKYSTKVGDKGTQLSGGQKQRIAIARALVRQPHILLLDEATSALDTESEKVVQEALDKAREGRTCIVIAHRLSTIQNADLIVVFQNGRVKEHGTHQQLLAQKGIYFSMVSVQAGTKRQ
Procedure: as §2, §3

MDR1 (P-glycoprotein) = target: T3, MDR1 (P-glycoprotein) (Homo sapiens, UniProt P08183); experiment: as above; type: in vitro ADME; details: human, Calu-3, 21 d at ALI
T3 construct: MDR1 in Calu-3 cultures is expressed and operative on the apical membrane of the cells only after 21 d at ALI; endogenous in cells; host or cells: Calu-3 cells at air-liquid interface, 8 d or 21 d
T3 sequence (P08183 whole entry): as above
Procedure: as §2, §3

EpiAirway™ = type: in vitro ADME, human
Procedure: (§1) In parallel, the paracellular and transcellular permeability of cultures to solutes was assessed by monitoring the apical-to-basolateral fluxes of ^14C-mannitol and ^3H-propranolol, respectively. In detail, cell monolayers were washed and incubated for 30 min in Hank’s Balanced Salt Solution (HBSS, pH 7.4, 37 °C); HBSS containing ^14C-mannitol (1 µCi/mL, corresponding to 20 µM) or ^3H-propranolol (3 µCi/mL; 10 µM) was then added to the apical side (donor chamber) of the monolayers.

Calu-3 cells = experiment: Paracellular and transcellular permeability (apical-to-basolateral Papp) in Calu-3; type: in vitro ADME, human; details: Calu-3, after 21 d at ALI, AB flux, 20 µM 14C-mannitol
Procedure: as §1

Structure (SMILES): Cc1nc(-c2ccc(OCC(C)C)c(C#N)c2)sc1C(=O)O [Febuxostat]
effect of inhibitor on Papp for AB flux of 3H-mitoxantrone (BCRP [1]): modest but significant decrease
effect of inhibitor on BA flux of 3H-mitoxantrone (BCRP [2]): remained almost unaffected
effect of inhibitor on uptake ratio (UR) of 3H-mitoxantrone (BCRP [2]): slight decrease

Structure (SMILES): C/C=C/C[C@@H](C)C(=O)[C@H]1C(=O)N[C@@H](C(C)C)C(=O)N(C)CC(=O)N(C)[C@@H](CC(C)C)C(=O)N[C@@H](C(C)C)C(=O)N(C)[C@@H](CC(C)C)C(=O)N[C@@H](C)C(=O)N[C@H](C)C(=O)N(C)[C@@H](CC(C)C)C(=O)N(C)[C@@H](CC(C)C)C(=O)N(C)[C@@H](C(C)C)C(=O)N1C [PSC833]
effect of inhibitor on Rhodamine 123 fluxes (MDR1 [3]; 8 d and 21 d at ALI, 10 µM PSC833): lack of inhibition

Papp for AB vs BA fluxes (MDR1 [4]; Calu-3, 8 d at ALI): comparable
Papp for BA transport vs AB flux (MDR1 [4]; Calu-3, 21 d at ALI): hugely higher than that of AB flux
efflux ratio at 120 min, 1 µM (MDR1 (P-glycoprotein); pH 7.4, probe Rhodamine 123, with PSC833 10 µM, 1 µM Rhodamine 123, + 10 µM PSC833, read-out: efflux ratio (ER) in the presence of the inhibitor): 2.8
efflux ratio at 120 min, 1 µM (MDR1 (P-glycoprotein); pH 7.4, probe Rhodamine 123, 1 µM Rhodamine 123, control (no inhibitor), read-out: efflux ratio (ER)): 7
AB vs BA fluxes (MDR1 [3]; 8 d and 21 d at ALI, 1 µM Rhodamine 123): no differences
values of Papp and ER (MDR1 [3]; Rhodamine 123 fluxes): very low
Structure (SMILES): COC(=O)c1ccccc1-c1c2ccc(=N)cc-2oc2cc(N)ccc12 [Rhodamine 123]

mannitol permeability (Papp), 8 d vs 21 d of culture (EpiAirway™): no difference
Papp for mannitol, 21 d vs 8 d of culture (Calu-3 cells): decreased
Structure (SMILES): OC[C@@H](O)[C@@H](O)[C@H](O)[C@H](O)CO [mannitol]

Structure (SMILES): CC(C)NCC(O)COc1cccc2ccccc12 (stereo not shown) [propranolol]
propranolol permeability (Papp), EpiAirway vs Calu-3 (EpiAirway™; human, 120 min, 10 µM, pH 7.4): slightly higher than that of Calu-3 cells

Reference: PMC7247561, “Characterization of ABC Transporters in EpiAirway™, a Cellular Model of Normal Human Bronchial Epithelium” (International Journal of Molecular Sciences, 2020)
